In patent publication US11229714B2, “Electrochemical reduction or prevention of infections” (WASHINGTON STATE UNIVERSITY, priority 2015, dated 2022):

Columns and labels:
[1] = system: P. aeruginosa PAO1 biofilm cells; experiment: Intracellular hydroxyl free radical formation (HPF fluorescence); assay type: cell-based, Pseudomonas aeruginosa; conditions: treated vs untreated biofilm cells
Description: Intracellular hydroxyl free radical (OH•) formation was detected using 5 μM of a fluorescent reporter dye, 3′-(p-hydroxyphenyl fluorescein) (HPF). […] The samples were centrifuged (10,000×g for 10 min), and then the medium was replaced with a final concentration of 5 μM HPF prepared in 500 μL of 0.1 M PBS. After staining in the dark at room temperature for 15 minutes, samples were centrifuged at 10,000×g for 10 min. Supernatant was removed, and cells were rinsed and re-suspended with PBS. An aliquot (100 μL) was added to each well in a 96-well plate, and fluorescence intensity was quantified using a microplate reader with excitation at 490 and emission at 515 nm. For the OH• formation assays, fluorescence was estimated as ((Fluorescence with dye− Fluorescence without dye)/(Fluorescence without dye))*(100).

[2] = system: P. aeruginosa PAO1 biofilm cells; experiment: SEM imaging of biofilm cells; assay type: cell-based, Pseudomonas aeruginosa; conditions: 24 h treatment
Description: For SEM imaging, biofilms were grown for 24 hours on UV-sterilized, 0.22 μm type GV membrane filters placed in sterile 6-well plates. Exogenous H2O2 was added continuously at an average 0.008 mmol/h for 24 hours to mimic the e-scaffold generated H2O2 treatment. After treatment for 24 hours, both e-scaffolds and membrane filters with biofilms were aseptically collected from the untreated, e-scaffold treated, and exogenous H2O2 treated wells. The membrane filters and e-scaffolds were fixed overnight with 2.5% glutaraldehyde and 2% paraformaldehyde in 0.1 M phosphate buffer, followed by rinsing with 0.1 M phosphate buffer. The membranes and e-scaffolds were then dehydrated gradually by being washed sequentially with 10%, 30%, 50%, 70%, and 95% alcohol (10 min each) and 100% alcohol (3×10 min each). Samples were then sputter-coated with gold prior to field emission in-lens scanning electron microscopy imaging.

[3] = system: Acinetobacter baumannii biofilms; experiment: In vitro A. baumannii biofilm viable cell count (CFU, drop-plate); assay type: cell-based
Description: Acinetobacter baumannii biofilms were used to test efficacy of the e-scaffold. An overnight culture of Acinetobacter baumannii (ATCC #BAA-1605) was grown in full-strength Luria Broth (LB) medium (Sigma-Aldrich, catalog #L3522) and was re-suspended in 5% LB medium (OD600≈0.5). […] After 2 hours of initial attachment, the bacterial suspension was removed and the biofilms were washed twice to remove planktonic cells and then refreshed with 5% LB medium. Biofilms were allowed to develop for 24 hours. Before the e-scaffolds were applied, the bulk liquid was refreshed.
E-scaffolds were sterilized by autoclaving (121° C., 15 min) and were saturated with sterilized liquid medium before being applied to existing Acinetobacter baumannii biofilms. The scaffolds were then polarized at −600 mVAg/AgCl for 24 hours, after which biofilms were processed for the quantification of viable cells by scraping the e-scaffold and biofilms from the glass surfaces of the petri dish into 5 ml of LB medium (1 g/L). The suspensions were centrifuged, and the resulting cell pellet was re-suspended in 1 ml of LB medium (1 g/L), and serial dilutions were prepared. Colony-forming units (“CFU”) were counted using a drop-plate count method. […]
To test whether H2O2 can remove biofilms in vitro and from infected porcine explants, exogenous H2O2 (VWR, Catalog #RC3819-16, adjusted to a concentration similar to that produced by the e-scaffold) was added to Acinetobacter baumannii biofilms. […] First, the biofilms were exposed to the total calculated amount of H2O2 in a single administration. […]
Catalase (Sigma-Aldrich, catalog #C1345) was added to an Acinetobacter baumannii biofilm and measured protection against H2O2 produced by the e-scaffold. Prior to addition, the H2O2 decomposition rate per unit of catalase was determined from H2O2 microelectrode measurements. The total amount of catalase required per min for complete decomposition of H2O2 was calculated based on the rate of H2O2 generation by the e-scaffold. To ensure complete H2O2 decomposition, catalase was added in excess of the calculated value (5×=0.05 mg/ml). […]

[4] = system: P. aeruginosa PAO1 persister cells; experiment: Treatment of persister cells isolated from ciprofloxacin-treated biofilms (CFU); assay type: cell-based, Pseudomonas aeruginosa
Description: (§1) To identify and isolate P. aeruginosa PAO1 persister cells, planktonic culture was grown to the stationary phase and the dose-dependent killing curve for ciprofloxacin (0-200 μg/ml) was investigated. […] Assessments were then performed on biofilms regrown from cells recovered after no treatment (“untreated biofilms”), cells recovered after e-scaffold treatment (“e-scaffold treated biofilm”), and “persister cells” that were isolated from biofilms treated with 200 μg/ml ciprofloxacin for 3.5 hours. The treated samples were washed with 0.9% NaCl and suspended in LB to isolate persister cells from ciprofloxacin-treated biofilms for subsequent experiments as described in more detail below.
The total number of viable cells was determined for ciprofloxacin-treated and untreated biofilms using the modified drop-plate cell counting method. Remaining persister cells were then exposed to either 200 μg/ml ciprofloxacin or e-scaffold treatment for 6 hours. Final CFU values were then determined.

[5] = system: P. aeruginosa PAO1 planktonic culture; experiment: Dose-dependent killing curve for ciprofloxacin, stationary phase planktonic culture; assay type: cell-based, Pseudomonas aeruginosa; conditions: 0-200 μg/ml, 200× of MIC
Description: as §1

[6] = system: P. aeruginosa PAO1 biofilms; conditions: general statement, no e-scaffold; cited from earlier work
[7] = system: P. aeruginosa PAO1 biofilms; experiment: Tobramycin susceptibility of P. aeruginosa PAO1 biofilms with or without e-scaffold (CFU); assay type: cell-based, Pseudomonas aeruginosa; conditions: biofilms regrown from persister cells, 10 μg/ml tobramycin, no e-scaffold
Description: For the following experiments, 20 g/L (1×) Luria broth (LB) medium (Sigma-Aldrich, catalog #L3522) was used to grow P. aeruginosa PAO1 cultures overnight, and 1 g/L (0.05×) LB was used as the growth medium for biofilms. Tobramycin (Sigma Aldrich, catalog #T4014) and ciprofloxacin (Sigma Aldrich, catalog #17850) solutions were diluted in 1 g/L (0.05×) LB for antibiotic susceptibility experiments and persister cell isolation, respectively. Minimum inhibitory concentrations (MICs) were determined for both antibiotics following the Clinical and Laboratory Standards Institute (CLSI) protocol. Other compounds used include 3′-p-hydroxyphenyl fluorescein dye (Invitrogen, catalog #H36004), propidium iodide (Invitrogen, catalog #L-7012), thiourea (AK Scientific, Inc., catalog #S726), and H2O2 (VWR, Catalog #RC3819-16).
Frozen stocks of P. aeruginosa PAO1 were cultured overnight in LB at 37° C. on a rotating table. For biofilm experiments, overnight culture was adjusted to OD600≈0.5 in LB and used as an inoculum. 2 ml of culture was used to inoculate sterile glass bottom petri dishes and allowed to form biofilms for 24 hours. Such one day-old biofilms were treated with e-scaffolds for 24 hours. Untreated and e-scaffold treated biofilm cells were then washed twice to remove loosely attached cells. Remaining cells were recovered for antibiotic susceptibility testing. […]

Molecule: OO [H2O2, hydrogen peroxide]
- HPF fluorescence (OH• formation) [1]: increased fluorescence
- cell morphology in SEM images [2]: membrane-compromised cells
- reduction in Acinetobacter baumannii CFU ([3]; 45 mM H2O2 in a single administration, vs control without H2O2): ~3 log
- reduction in bacterial counts ([3]; equivalent concentration of H2O2 delivered continuously over 24 hours): ~2 log

Molecule: O=C(O)c1cn(C2CC2)c2cc(N3CCNCC3)c(F)cc2c1=O [ciprofloxacin]
- change of final population of persister cells ([4]; additional 6 hours of 200 μg/ml ciprofloxacin treatment): did not change
- share of total biofilm cells belonging to the persister population ([4]; biofilms treated with 200 μg/ml ciprofloxacin for 3.5 hours): about 0.31%
- ciprofloxacin concentration above which the surviving subpopulation plateaus [5]: above 50 μg/ml

Molecule: NC[C@H]1O[C@H](O[C@H]2[C@H](O)[C@@H](O[C@H]3O[C@H](CO)[C@@H](O)[C@H](N)[C@H]3O)[C@H](N)C[C@@H]2N)[C@H](N)C[C@@H]1O [tobramycin]
- tobramycin typically required for P. aeruginosa PAO1 biofilm treatment [6]: > 500 × of MIC
- reduction in viable cells [7]: 1.2±0.16 log

Molecule: catalase
- effect on biofilm ([3]; catalase itself (0.05 mg/ml)): no significant effect
